Results: patent US7250399B2, “Compounds having growth hormone releasing activity” (The Administrators of the Tulane Educational Fund, priority 1998, dated 2007)
“And” between values parts separate entries of the source, which are not always exact repeats. Equal entries are not always repeated.

Experiments:
[1] = test system: Growth Hormone release; test: In Vitro Release of Growth Hormone in Rat; type: cell-based
Procedure: (§1) In vitro and in vivo activity of certain compounds were determined in rats and adult beagle dogs (in vivo activity only).

[2] = test system: Growth Hormone release; test: In Vivo GH Release in Rats (i.v., serum GH by RIA); set-up: species or system Sprague-Dawley rats; settings: i.v., serum 10 min after injection
Procedure: Immature female Sprague-Dawley rats were obtained from the Charles River Laboratories (Wilmington, Mass.). After arrival they were housed at 25° C. with a 14:10 hour light:dark cycle. Water and Purina rat chow were available ad libitum. Pups were kept with their mothers until 21 days of age.
Twenty-six day old rats, six rats per treatment group, were anesthetized interperitoneally with 50 mg/kg of pentobarbital 20 minutes prior to i.v. treatment with peptide. Normal saline with 0.1% gelatin was the vehicle for intravenous (i.v.) injections of the peptides. The anesthetized rats, weighing 55-65 grams, were injected i.v. with the quantity of grown hormone releasing compounds indicated in Table 3. Injection was made as a 0.1 mL solution into the jugular vein.
All animals were sacrificed by guillotine 10 minutes after final test injection (see Table 3). Trunk blood for the determination of blood GH levels was collected following decapitation. After allowing the blood to clot, it was centrifuged and the serum was separated from the clot. Serum was kept frozen until the day of sampling for radioimmunoassay (RIA) determination of growth hormone levels according to the following procedure, as developed by the National Institute of Arthritis, Diabetes and Digestive and Kidney Diseases (NIADDK).
Reagents are generally added to the RIA analysis tubes at a single sitting, at refrigerator temperature (about 4° C.) in the following sequence: • (a) buffer, • (b) “cold” (i.e., non-radioactive) standard or unknown serum sample to be analyzed, • (c) radio-iodinated growth hormone antigen, and • (d) growth hormone antiserum.
Reagent addition is generally carried out so that there is achieved a final RIA tube dilution of about 1:30,000 (antiserum to total liquid volume; vol:vol).
The mixed reagents are then typically incubated at room temperature (about 25° C.) for about 24 hours prior to addition of a second antibody (e.g., goat or rabbit anti-monkey gamma globulin serum) which binds to and causes precipitation of the complexed growth hormone antiserum. Precipitated contents of the RIA tubes are then analyzed for the number of counts in a specified period of time in a gamma scintillation counter. A standard curve is prepared by plotting number of radioactive counts versus growth hormone (GH) level. GH levels of unknown are then determined by reference to the standard curve.
Serum GH was measured by RIA with reagents provided by the National Hormone and Pituitary Program.
Serum levels in Tables 3 and 4 are recorded in ng/mL in terms of the rat GH standard of 0.61 International Units/mg (IU/mg). Data is recorded as the mean ±standard error of the mean (SEM). Statistical analysis was performed with Student's t-test. In Table 3, the results shown are the average of studies with six rats.

[3] = test system: Growth Hormone release; test: In Vivo Release of Growth Hormone in Adult Beagle Dogs; set-up: unit not given here
Procedure: as §1

[4] = compound at 1 (dose unit not given)
[5] = compound at .01 (dose unit not given)
[6] = compound at 3 (dose unit not given)
[7] = compound at 10 (dose unit not given)
[8] = compound at 30 (dose unit not given)
[9] = compound at 100 (dose unit not given)

Aib-DTrp-DPro-diisobutylamide
In Vitro Release of Growth Hormone in Rat, GH [1, 4]: 1124 ng/mL | In Vitro Release of Growth Hormone in Rat, GH [1, 5]: 1322 ng/mL | In Vitro Release of Growth Hormone in Rat, GH ([1]; compound at .03 (dose unit not given)): 1529 ng/mL | In Vitro Release of Growth Hormone in Rat, GH ([1]; compound at .1 (dose unit not given)): 1427 ng/mL | In Vitro Release of Growth Hormone in Rat, GH ([1]; compound at .3 (dose unit not given)): 1155 ng/mL | In Vivo Release of Growth Hormone in Rat, GH [2, 4]: 642 ng/mL | In Vivo Release of Growth Hormone in Rat, GH [2, 6]: 1524 ng/mL | In Vivo Release of Growth Hormone in Rat, GH [2, 7]: 1837 ng/mL | In Vivo Release of Growth Hormone in Rat, GH [2, 8]: 2307 ng/mL | In Vivo Release of Growth Hormone in Rat, GH [2, 9]: 2913 ng/mL | In Vivo Release of Growth Hormone in Adult Beagle Dogs ([3]; oral dose 1 mg/kg, time 0.5 hr, listed as DPo-diisobutylamide, 1 mg/kg): 85 and 128 and 89 | In Vivo Release of Growth Hormone in Adult Beagle Dogs ([3]; oral dose 1 mg/kg, time 1 hr, listed as DPo-diisobutylamide, 1 mg/kg): 30 and 50 and 59 | In Vivo Release of Growth Hormone in Adult Beagle Dogs ([3]; oral dose 1 mg/kg, time 2 hr, listed as DPo-diisobutylamide, 1 mg/kg): 16 and 24 and 30 | In Vivo Release of Growth Hormone in Adult Beagle Dogs ([3]; oral dose 1 mg/kg, time 4 hr, listed as DPo-diisobutylamide, 1 mg/kg): 6 and 5.6 and 7 | In Vivo Release of Growth Hormone in Adult Beagle Dogs ([3]; oral dose 1 mg/kg, time 7 hr, listed as DPo-diisobutylamide, 1 mg/kg): 2.5 and 2.2 and 3.7 | In Vivo Release of Growth Hormone in Adult Beagle Dogs ([3]; oral dose 2 mg/kg, time 0.5 hr): 54 | In Vivo Release of Growth Hormone in Adult Beagle Dogs ([3]; oral dose 2 mg/kg, time 1 hr): 30 | In Vivo Release of Growth Hormone in Adult Beagle Dogs ([3]; oral dose 2 mg/kg, time 2 hr): 22 | In Vivo Release of Growth Hormone in Adult Beagle Dogs ([3]; oral dose 2 mg/kg, time 3 hr): 15 | In Vivo Release of Growth Hormone in Adult Beagle Dogs ([3]; oral dose 2 mg/kg, time 4 hr): 7 | In Vivo Release of Growth Hormone in Adult Beagle Dogs ([3]; oral dose 2 mg/kg, time 5 hr): 4.6 | In Vivo Release of Growth Hormone in Adult Beagle Dogs ([3]; oral dose 2 mg/kg, time 6 hr): 4.8 | In Vivo Release of Growth Hormone in Adult Beagle Dogs ([3]; oral dose 2 mg/kg, time 8 hr): 1.8 | In Vivo Release of Growth Hormone in Adult Beagle Dogs ([3]; oral dose 4 mg/kg, time 0 hr, listed as DPo-diisobutylamide, 4 mg/kg): 1.4 and 0.8 | In Vivo Release of Growth Hormone in Adult Beagle Dogs ([3]; oral dose 4 mg/kg, time 3 hr, listed as DPo-diisobutylamide, 4 mg/kg): 15 and 22 | In Vivo Release of Growth Hormone in Adult Beagle Dogs ([3]; oral dose 4 mg/kg, time 7 hr, listed as DPo-diisobutylamide, 4 mg/kg): 6.9

Aib-DTrp-DPro-3-methylpiperidinamide [DPro-m-methylpiperidine]
In Vitro Release of Growth Hormone in Rat, GH ([1]; compound at .0001 (dose unit not given)): 434 ng/mL | In Vitro Release of Growth Hormone in Rat, GH ([1]; compound at .0003 (dose unit not given)): 458 ng/mL | In Vitro Release of Growth Hormone in Rat, GH ([1]; compound at .001 (dose unit not given)): 633 ng/mL | In Vitro Release of Growth Hormone in Rat, GH ([1]; compound at .003 (dose unit not given)): 837 ng/mL | In Vitro Release of Growth Hormone in Rat, GH [1, 5]: 968 ng/mL | In Vivo Release of Growth Hormone in Rat, GH [2, 6]: 832 ng/mL | In Vivo Release of Growth Hormone in Rat, GH [2, 7]: 1557 ng/mL | In Vivo Release of Growth Hormone in Rat, GH [2, 8]: 1570 ng/mL | In Vivo Release of Growth Hormone in Rat, GH [2, 9]: 1762 ng/mL | In Vivo Release of Growth Hormone in Adult Beagle Dogs ([3]; oral dose 1 mg/kg, time 0 hr, 1 mg/kg): 2 | In Vivo Release of Growth Hormone in Adult Beagle Dogs ([3]; oral dose 1 mg/kg, time 0.5 hr, 1 mg/kg): 53 and 63 | In Vivo Release of Growth Hormone in Adult Beagle Dogs ([3]; oral dose 1 mg/kg, time 1 hr, 1 mg/kg): 19 and 32 | In Vivo Release of Growth Hormone in Adult Beagle Dogs ([3]; oral dose 1 mg/kg, time 2 hr, 1 mg/kg): 15 and 17 | In Vivo Release of Growth Hormone in Adult Beagle Dogs ([3]; oral dose 1 mg/kg, time 3 hr, 1 mg/kg): 9.6 and 13 | In Vivo Release of Growth Hormone in Adult Beagle Dogs ([3]; oral dose 1 mg/kg, time 5 hr, 1 mg/kg): 2.2 and 1.5 | In Vivo Release of Growth Hormone in Adult Beagle Dogs ([3]; oral dose 1 mg/kg, time 7 hr, 1 mg/kg): 2.2 and 3 | In Vivo Release of Growth Hormone in Adult Beagle Dogs ([3]; oral dose 1 mg/kg, time 8 hr, 1 mg/kg): 1 | In Vivo Release of Growth Hormone in Adult Beagle Dogs ([3]; oral dose 2 mg/kg, time 0.5 hr): 128 | In Vivo Release of Growth Hormone in Adult Beagle Dogs ([3]; oral dose 2 mg/kg, time 1 hr): 59 | In Vivo Release of Growth Hormone in Adult Beagle Dogs ([3]; oral dose 2 mg/kg, time 2 hr): 29 | In Vivo Release of Growth Hormone in Adult Beagle Dogs ([3]; oral dose 2 mg/kg, time 3 hr): 12 | In Vivo Release of Growth Hormone in Adult Beagle Dogs ([3]; oral dose 2 mg/kg, time 4 hr): 8.9 | In Vivo Release of Growth Hormone in Adult Beagle Dogs ([3]; oral dose 2 mg/kg, time 6 hr): 3 | In Vivo Release of Growth Hormone in Adult Beagle Dogs ([3]; oral dose 2 mg/kg, time 7 hr): 3 | In Vivo Release of Growth Hormone in Adult Beagle Dogs ([3]; oral dose 4 mg/kg, time 1 hr): 55 | In Vivo Release of Growth Hormone in Adult Beagle Dogs ([3]; oral dose 4 mg/kg, time 2 hr, 4 mg/kg): 50 and 54 | In Vivo Release of Growth Hormone in Adult Beagle Dogs ([3]; oral dose 4 mg/kg, time 3 hr, 4 mg/kg): 52 and 53 | In Vivo Release of Growth Hormone in Adult Beagle Dogs ([3]; oral dose 4 mg/kg, time 4 hr, 4 mg/kg): 20 and 34 | In Vivo Release of Growth Hormone in Adult Beagle Dogs ([3]; oral dose 4 mg/kg, time 6 hr, 4 mg/kg): 11 | In Vivo Release of Growth Hormone in Adult Beagle Dogs ([3]; oral dose 4 mg/kg, time 7 hr, 4 mg/kg): 11 | In Vivo Release of Growth Hormone in Adult Beagle Dogs ([3]; oral dose 4F [sic] (mg/kg; F not explained), time 0 hr): 1.4 | In Vivo Release of Growth Hormone in Adult Beagle Dogs ([3]; oral dose 4F [sic] (mg/kg; F not explained), time 0.5 hr): 72 | In Vivo Release of Growth Hormone in Adult Beagle Dogs ([3]; oral dose 4F [sic] (mg/kg; F not explained), time 1 hr): 84 | In Vivo Release of Growth Hormone in Adult Beagle Dogs ([3]; oral dose 4F [sic] (mg/kg; F not explained), time 2 hr): 18 | In Vivo Release of Growth Hormone in Adult Beagle Dogs ([3]; oral dose 4F [sic] (mg/kg; F not explained), time 3 hr): 4.7 | In Vivo Release of Growth Hormone in Adult Beagle Dogs ([3]; oral dose 4F [sic] (mg/kg; F not explained), time 4 hr): 3.5 | In Vivo Release of Growth Hormone in Adult Beagle Dogs ([3]; oral dose 4F [sic] (mg/kg; F not explained), time 5 hr): 1.4
